Numbered stars: 1 amine (or outer) side, 2 acyl side, 3 side chain; on linkers, the order of the positions; unused ones are H or OH. Bridge positions count the residues as written; N and C are the ends. Square brackets hold non-standard residues; d marks the D form. Peptide text beside a SMILES is read from it. I, II: the chains in the order shown. Actinocin(9to1) = Cc1c2oc3c(C)ccc(C(=O)[*:1])c3nc-2c(C(=O)[*:2])c(N)c1=O; NMeV = CN[C@H](C(=O)O)C(C)C; Sar = CNCC(=O)O
How the values were obtained:
Type in all cases: cell-based, human
p16 [1] = experiment: Inhibition of transcription, RT-PCR of p16; details: MDA-MB-435 cells, 24 hours, 2.5 μg/ml Actinomycin D or 1 μM Flavopiridol
Text: (§1) CTCF is a ubiquitous, multifunctional protein that has a critical role in organizing distinct chromosomal domains through boundary/insulator formation (Filippova et al. (2005) “Boundaries between chromosomal domains of X inactivation and escape bind CTCF and lack CpG methylation during early development.” Dev Cell 8: 31-42; Ishihara et al. (2006) “CTCF-dependent chromatin insulator is linked to epigenetic remodeling.” Mol Cell 23: 733-742; Splinter et al. (2006) “CTCF mediates long-range chromatin looping and local histone modification in the beta-globin locus.” Genes Dev 20: 2349-2354) and in repressing or activating transcription. Because we saw a pronounced change in chromatin structure upstream of the p16 gene when active or silenced (FIG. 1), we explored the possibility that CTCF can associate within this region. […] Yet, we detected CTCF binding at a well-characterized target gene, c-Myc, in both p16-expressing and non-expressing cell types. […] CTCF was immunoprecipitated and analyzed for association with the p16^INK4a and RASSF1A gene. […]
(§2) MDA-MB-435 cells were treated with Flavopiridol (Sigma) or Actinomycin D (Sigma) at 1 μM and 2.5 μg/ml, respectively, for 24 hours. At this time cells were harvested and analyzed for gene expression and CTCF binding.

RASSF1A [2] = experiment: Inhibition of transcription, RT-PCR of RASSF1A; details: MDA-MB-435 cells, 24 hours, 2.5 μg/ml Actinomycin D or 1 μM Flavopiridol
Text: as §1, §2

CTCF = experiment: PARlation status of CTCF, IP with anti-PAR antibody; details: MDA-MB-435 cells, treated with 3-ABA for 24 hours
Method: As described above, CTCF may be important for maintaining an active p16 gene. To further investigate possible CTCF defects that may impact its function in p16-silenced T47D breast cancer cells, we examined its post-translational modifications and association with several known protein interaction partners. […] In addition, western blots were performed to determine the protein levels of CTCF and putative interacting partners in MDA-MB-435 and T47D cells (FIG. 4B). […] Moreover, PARP-1 and Nucleolin appear to associate with CTCF in a mutually exclusive manner, with Nucleolin being present in CTCF complexes only in p16 expressing cells. To explore this further, we examined the PARlation status of CTCF in each cell type using an antibody that recognizes ADP-ribose polymers (PAR). Unexpectedly, we found PARlation associated with both CTCF and Nucleolin in p16-expressing MDA-MB-435 cells but not in p16-silenced TD47 cells (FIG. 4D, upper panels). […] Inputs are equal to 2.5% starting material.
2 mg of whole cell lysates were diluted in IP buffer with 0.5% Triton X-100. Protein mixes were pre-cleared for 1-2 hours with protein G Sepharose, after which the beads were removed and CTCF (Upstate) or anto-phosphotyrosine (Upstate) antibody added overnight at 4° C. to capture complexes. Complexes were recovered with protein G Sepharose, washed 4 times in IP buffer and subsequently analyzed by SDS-PAGE.

p16 [3] = experiment: qPCR expression analysis of CTCF target gene p16 upon inhibition of PARP activity; details: MDA-MB-435 cells, 24 hours, 5 mM 3-ABA, normalized to c-Myc
Method: (§3) Next, we examined whether PARlation of target proteins impacts the expression of CTCF-regulated tumor suppressor genes. To achieve this, we perturbed cellular PARlation activity in p16-expressing cells by two approaches: first, incubation with the broad-spectrum PARP inhibitor 3-ABA; and second, shRNA-mediated ablation of PARP-1. […] Results are normalized to c-Myc levels. Error bars represent ±standard deviation.
(§4) PARP-1 knockdown was achieved using the MISSION™ Lentiviral shRNA system from Sigma. Lentiviral particles were packaged in HEK293T cells, with virus collected 24 hours post-transfection. Cells infected with shRNA-containing virus and polybrene were selected using puromycin at 72 hours post infection.

RASSF1A [4] = experiment: qPCR expression analysis of CTCF target gene RASSF1A upon inhibition of PARP activity; details: MDA-MB-435 cells, 24 hours, 5 mM 3-ABA, normalized to c-Myc
Method: as §3, §4

p16 gene = experiment: p16 mRNA induction after AZA treatment (RT-PCR, qPCR); details: T47D cells treated with both AZA and Trichostatin A
Text: The p16 tumor suppressor gene is commonly silenced in numerous types of human cancers and remains a relevant therapeutic target of wide interest. One method that is extensively employed to restore p16 expression, both clinically and in vitro, is treatment of cancer cells with hypomethylating-nucleoside analogues such as 5′AZA-2′-deoxycytidine (AZA) (Otterson et al. (1995) “CDKN2 gene silencing in lung cancer by DNA hypermethylation and kinetics of p16INK4 protein induction by 5-aza 2′ deoxycytidine.” Oncogene 11: 1211-1216; Schrump et al. (2006) “Phase I study of decitabine-mediated gene expression in patients with cancers involving the lungs, esophagus, or pleura.” Clin Cancer Res 12: 5777-5785), which reverses DNA methylation. We reasoned that treatment of cells with AZA might also restore CTCF binding at the p16 upstream promoter through one of two mechanisms. First, CTCF is known to bind DNA in a methylation-sensitive fashion (Hark et al. (2000) “CTCF mediates methylation-sensitive enhancer-blocking activity at the H19/Igf2 locus.” Nature 405: 486-489); thus, demethylation of the p16 locus might allow CTCF to reassociate. […]

Row | SMILES | p16 transcription (p16 [1]) | RASSF1A transcription (RASSF1A [2]) | other results
1 | Cc1c2oc3c(C)ccc(C(=O)N[C@@H]4C(=O)N[C@H](C(C)C)C(=O)N5CCC[C@H]5C(=O)N(C)CC(=O)N(C)[C@@H](C(C)C)C(=O)O[C@@H]4C)c3nc-2c(C(=O)N[C@@H]2C(=O)N[C@H](C(C)C)C(=O)N3CCC[C@H]3C(=O)N(C)CC(=O)N(C)[C@@H](C(C)C)C(=O)O[C@@H]2C)c(N)c1=O [Actinomycin D] (I: T[dV]P[Sar][NMeV] / II: T[dV]P[Sar][NMeV]; ester I:1-I:C, II:1-II:C; linker I:N-II:N via Actinocin(9to1)) | inhibition | inhibition | –
2 | NC(=O)c1cccc(N)c1 [3-ABA, 3-Aminobenzamide] | – | – | PARlation associated with CTCF and Nucleolin (CTCF): inhibited; p16 mRNA levels (p16 [3]): significant reduction; RASSF1A mRNA levels (RASSF1A [4]): dramatic decrease
3 | CN1CC[C@H](c2c(O)cc(O)c3c(=O)cc(-c4ccccc4Cl)oc23)[C@H](O)C1 [Flavopiridol] | inhibition | inhibition | –
4 | CC(/C=C/C(=O)NO)=C\[C@@H](C)C(=O)c1ccc(N(C)C)cc1 [Trichostatin A] | – | – | synergistic p16 gene reactivation (p16 gene): No synergistic p16 gene reactivation
